The results in this text go back to ChEMBL document CHEMBL4311969, “Polygala tenuifolia-Acori tatarinowii herbal pair as an inspiration for substituted cinnamic α-asaronol esters: Design, synthesis, anticonvulsant activity, and inhibition of lactate dehydrogenase study” (Eur J Med Chem, 2019).

SMILES strings stand for the structures. Active and inactive are the calls of the source. No cut-off for these calls is given here.

The species named for series [1] is Homo sapiens. In words: Inhibition of human LDH5 at 2 mM using sodium pyruvate as substrate by UV-VIS spectrophotometry method relative to control.
In another series the test system is Mus musculus. Kind of series: Anticonvulsant activity in Kunming mouse assessed as MES-induced hind limb extension at 100 mg/kg, ip administered 0. 5 to 2 hrs before MES stimulation. Format: functional, organism-based.
Series [2] addresses GABA-A receptor; alpha-1/beta-2/gamma-2 (Homo sapiens) (UniProt P14867+P47870+P18507). Kind of series: Agonist activity at GABA alpha1beta2gamma2 receptor in human HEK293T at 3.3 to 300 uM at -50 mV holding potential by whole cell voltage clamp assay relative to control. The class given is protein-complex assay.
The species entered for series [3] is Homo sapiens. In words: Inhibition of human LDH1 at 0.5 mM using sodium pyruvate as substrate by UV-VIS spectrophotometry method relative to control.
Series [4] addresses T1, GABA-A receptor; alpha-1/beta-2/gamma-2 (Homo sapiens, UniProt P14867+P18507+P47870).
T1 sequence (P14867 whole entry): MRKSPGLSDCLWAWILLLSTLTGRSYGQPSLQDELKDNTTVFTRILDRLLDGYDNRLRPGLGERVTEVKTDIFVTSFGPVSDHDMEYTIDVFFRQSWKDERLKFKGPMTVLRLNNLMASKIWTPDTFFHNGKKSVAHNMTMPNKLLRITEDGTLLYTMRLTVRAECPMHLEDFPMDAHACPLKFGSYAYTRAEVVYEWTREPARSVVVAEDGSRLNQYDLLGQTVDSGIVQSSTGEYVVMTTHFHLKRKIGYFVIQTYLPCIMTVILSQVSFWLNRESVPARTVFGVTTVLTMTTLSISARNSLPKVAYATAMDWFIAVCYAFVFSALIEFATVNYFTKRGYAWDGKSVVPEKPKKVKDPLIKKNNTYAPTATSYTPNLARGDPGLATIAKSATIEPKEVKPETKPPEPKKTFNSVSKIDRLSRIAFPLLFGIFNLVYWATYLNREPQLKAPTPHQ
T1 sequence (P47870 whole entry): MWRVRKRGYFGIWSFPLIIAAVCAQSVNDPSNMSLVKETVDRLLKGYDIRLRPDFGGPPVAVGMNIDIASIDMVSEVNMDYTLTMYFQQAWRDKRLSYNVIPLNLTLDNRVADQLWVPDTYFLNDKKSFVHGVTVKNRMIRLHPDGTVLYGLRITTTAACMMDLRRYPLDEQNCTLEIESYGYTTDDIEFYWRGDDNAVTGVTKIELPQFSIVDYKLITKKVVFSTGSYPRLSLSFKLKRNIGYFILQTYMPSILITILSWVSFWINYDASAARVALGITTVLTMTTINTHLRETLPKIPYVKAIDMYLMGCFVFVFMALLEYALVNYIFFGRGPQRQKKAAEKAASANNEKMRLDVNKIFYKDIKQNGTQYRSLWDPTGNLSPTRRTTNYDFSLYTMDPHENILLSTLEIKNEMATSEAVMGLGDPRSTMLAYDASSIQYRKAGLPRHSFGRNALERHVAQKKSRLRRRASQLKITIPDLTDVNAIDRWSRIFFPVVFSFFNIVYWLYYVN
T1 sequence (P18507 whole entry): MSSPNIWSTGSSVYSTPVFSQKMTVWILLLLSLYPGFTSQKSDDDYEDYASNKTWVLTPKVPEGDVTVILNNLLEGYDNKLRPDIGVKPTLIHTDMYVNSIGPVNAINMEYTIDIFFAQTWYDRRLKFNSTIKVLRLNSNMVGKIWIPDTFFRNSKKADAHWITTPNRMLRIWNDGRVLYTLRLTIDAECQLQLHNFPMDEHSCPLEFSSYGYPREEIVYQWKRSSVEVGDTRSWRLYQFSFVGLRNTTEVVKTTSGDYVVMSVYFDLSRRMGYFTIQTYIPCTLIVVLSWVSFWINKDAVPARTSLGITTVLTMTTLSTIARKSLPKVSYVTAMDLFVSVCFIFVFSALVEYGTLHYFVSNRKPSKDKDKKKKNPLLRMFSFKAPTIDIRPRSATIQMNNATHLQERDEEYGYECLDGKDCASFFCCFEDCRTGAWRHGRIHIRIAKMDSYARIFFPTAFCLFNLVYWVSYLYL
Kind of series: Agonist activity at GABA alpha1beta2gamma2 receptor in human HEK293T at -50 mV holding potential by whole cell voltage clamp assay. The class given is protein-complex assay.

For series [5], the species on record is Homo sapiens. In words: Inhibition of human LDH1 at 2 mM using sodium pyruvate as substrate by UV-VIS spectrophotometry method relative to control.
A short description of series [6]: Neurotoxicity against Kunming mouse assessed as time remained in rod at 100 mg/kg, ip administered 0.5 to 2 hrs by rotarod test. To be noted: in vivo. Format: toxicity, organism-based. For orientation: The rotarod test checks motor coordination on a turning rod.
The species entered for series [7] is Homo sapiens. Kind of series: Inhibition of human LDH5 at 0.5 mM using sodium pyruvate as substrate by UV-VIS spectrophotometry method relative to control.

A word on the inhibition: it is how much of the control response was suppressed. The term EC50 denotes the concentration that produces a half-maximal response. A low value points to higher potency in that assay. As to `CC(C)(C)C(O)/C=C/c1ccc2c(c1)OCO2` (stereo not drawn) [STIRIPENTOL], the inhibition in the series listed under Homo sapiens [1] and in the series listed under Homo sapiens [5] was 7 to 10% throughout. Besides, the result in the series on Mus musculus was Active. In addition, the %max in series [2] came out at 310%. The inhibition entry in the series filed under Homo sapiens [3] and in the series filed under Homo sapiens [7] was “inactive” throughout. The EC50 in series [4] is 46 µM. Further, in series [6], the Activity entry is “Non-Toxic”.
